Data set [1] can be described thus: Metabolic Stability in mouse liver microsome assessed as half life at […] measured upto 60 mins by HPLC-MS/MS analysis. The data set is classed as ADME. The settings on record: liver microsomes. Background: Liver microsomes are vesicles of endoplasmic reticulum, rich in cytochrome P450 enzymes.
Data set [2] can be described thus: Metabolic Stability in mouse liver microsome assessed as microsomal intrinsic clearance at […] measured upto 60 mins by HPLC-MS/MS analysis. The data set is classed as ADME. The settings on record: liver microsomes, read-out: CLH.
The nature of data set [3]: Metabolic Stability in human liver microsome assessed as microsomal intrinsic clearance at […] measured upto 60 mins by HPLC-MS/MS analysis. The data set is classed as ADME. The settings on record: liver microsomes, read-out: CLH.
A short description of data set [4]: Metabolic Stability in human liver microsome assessed as half life at […] measured upto 60 mins by HPLC-MS/MS analysis. The data set is classed as ADME. The settings on record: liver microsomes.
In data set [5] the target is T1, Nuclear receptor ROR-gamma (Homo sapiens, UniProt P51449).
T1 sequence (P51449 whole entry): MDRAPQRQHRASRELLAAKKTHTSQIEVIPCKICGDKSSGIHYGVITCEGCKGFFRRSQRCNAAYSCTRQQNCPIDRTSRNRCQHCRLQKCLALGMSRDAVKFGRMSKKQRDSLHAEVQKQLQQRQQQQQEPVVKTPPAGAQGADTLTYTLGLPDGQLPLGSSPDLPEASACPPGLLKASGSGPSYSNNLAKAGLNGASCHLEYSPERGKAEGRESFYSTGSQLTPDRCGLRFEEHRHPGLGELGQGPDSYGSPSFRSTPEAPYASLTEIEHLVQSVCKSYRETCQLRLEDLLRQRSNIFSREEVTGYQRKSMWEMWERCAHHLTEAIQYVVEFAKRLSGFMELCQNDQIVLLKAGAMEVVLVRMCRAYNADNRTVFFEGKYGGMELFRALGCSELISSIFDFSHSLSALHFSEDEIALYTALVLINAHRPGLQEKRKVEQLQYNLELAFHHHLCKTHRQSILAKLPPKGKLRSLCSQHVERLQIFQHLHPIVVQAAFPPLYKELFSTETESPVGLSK
Description: Agonist activity at biotinylated APC-labeled RORgammat LBD (unknown origin) assessed as increase in recruitment of europium-labeled SRC1 coactivator peptide incubated for 1 hr by dual FRET assay.

The nature of another data set: cells. The settings on record: Mus musculus, CD4+ T cell, 96 h.
Data set [6] has as its target T2, Nuclear receptor ROR-beta (Homo sapiens) (UniProt Q92753).
T2 sequence (whole entry): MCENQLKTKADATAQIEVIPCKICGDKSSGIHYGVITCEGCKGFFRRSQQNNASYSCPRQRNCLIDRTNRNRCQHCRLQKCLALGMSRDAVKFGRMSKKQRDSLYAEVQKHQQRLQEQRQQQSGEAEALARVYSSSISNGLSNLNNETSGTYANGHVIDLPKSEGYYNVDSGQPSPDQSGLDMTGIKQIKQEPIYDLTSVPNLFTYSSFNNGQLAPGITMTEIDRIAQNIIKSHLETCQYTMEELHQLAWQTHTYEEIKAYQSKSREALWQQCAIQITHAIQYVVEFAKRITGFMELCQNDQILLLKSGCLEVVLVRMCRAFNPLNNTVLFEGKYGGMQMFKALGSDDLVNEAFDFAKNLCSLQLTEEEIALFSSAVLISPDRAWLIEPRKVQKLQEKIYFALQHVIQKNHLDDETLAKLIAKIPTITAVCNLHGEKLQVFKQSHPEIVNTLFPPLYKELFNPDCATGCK
Put plainly: Agonist activity at human Gal4-fused RORbeta expressed in HEK293T cells assessed as luciferase activity by measuring maximal response incubated for 16 to 20 hrs by Luciferase reporter gene assay relative to control. In kind it is cell-based. The settings on record: filed as agonist, time 16-20 hrs. In general terms: Reporter assays use an easily measured gene product as a stand-in for the process of interest.

The nature of another data set: in vivo. As to conditions: CD-1, mouse, po, 10 mg/kg.
In another data set the test system is B16-F10. Put plainly: Antitumor activity against mouse B16-F10 cells xenografted in C57BL/6 mouse assessed as tumor growth inhibition at 50 mg/kg,ip administrated on day 7 for 8 days relative to control. In kind it is functional. As to conditions: B16-F10, 192 h, time 8 day, read-out: TGI.
Data set [7] concerns the target T3, Nuclear receptor ROR-alpha (Homo sapiens, UniProt P35398).
T3 sequence (P35398 whole entry): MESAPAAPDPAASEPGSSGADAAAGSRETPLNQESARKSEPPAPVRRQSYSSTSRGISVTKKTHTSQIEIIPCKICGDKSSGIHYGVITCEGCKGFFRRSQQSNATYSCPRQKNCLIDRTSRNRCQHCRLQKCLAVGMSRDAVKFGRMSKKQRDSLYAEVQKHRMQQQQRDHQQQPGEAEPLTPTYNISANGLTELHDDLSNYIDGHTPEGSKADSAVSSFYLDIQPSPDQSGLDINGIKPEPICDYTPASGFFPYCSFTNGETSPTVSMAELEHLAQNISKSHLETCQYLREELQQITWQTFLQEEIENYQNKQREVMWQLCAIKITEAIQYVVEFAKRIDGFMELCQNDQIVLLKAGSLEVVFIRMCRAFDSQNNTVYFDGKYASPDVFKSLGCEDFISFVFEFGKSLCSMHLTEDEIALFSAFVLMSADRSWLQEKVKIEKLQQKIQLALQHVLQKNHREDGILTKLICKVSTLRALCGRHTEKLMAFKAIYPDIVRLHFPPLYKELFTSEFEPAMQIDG
Description: Agonist activity at human Gal4-fused RORalpha expressed in HEK293T cells assessed as luciferase activity incubated for 16 to 20 hrs by Luciferase reporter gene assay. In kind it is cell-based.

In data set [8] the target is T4, Nuclear receptor ROR-alpha (Homo sapiens) (UniProt P35398).
T4 sequence (whole entry): T3 sequence (P35398 whole entry)
Put plainly: Agonist activity at human Gal4-fused RORalpha expressed in HEK293T cells assessed as luciferase activity by measuring maximal response incubated for 16 to 20 hrs by Luciferase reporter gene assay relative to control. The settings on record: filed as agonist, time 16-20 hrs. The data set is classed as cell-based.

Data set [9] deals with T5, Nuclear receptor ROR-beta (Homo sapiens, UniProt Q92753).
T5 sequence (Q92753 whole entry): T2 sequence (whole entry)
Description: Agonist activity at human Gal4-fused RORbeta expressed in HEK293T cells assessed as luciferase activity incubated for 16 to 20 hrs by Luciferase reporter gene assay. In kind it is cell-based.

The target in data set [10] is T1, Nuclear receptor ROR-gamma. Description: Inverse agonist activity at biotinylated APC-labeled RORgammat LBD (unknown origin) assessed as inhibition of europium-labeled SRC1 coactivator peptide recruitment incubated for 1 hr by dual FRET assay.

Where only a bound is given, the exact number is not on record here.

This note sets out measurements from ChEMBL document CHEMBL5375953, “Discovery of Biaryl Amide Derivatives as Potent, Selective, and Orally Bioavailable RORγt Agonists for Cancer Immunotherapy” (J Med Chem, 2023).

The term half-life denotes the time in which the quantity being followed falls by half. In general, EC50 refers to the midpoint of the concentration-response curve. A word on the AUC(0-inf): it is the area under the concentration-time curve extrapolated to infinity. High values mean more exposure, low ones less exposure.

Description for cells: Induction of Th17 cells differentiation in mouse CD4+ T cell assessed as increase in CD4+ IL-17A production incubated for 4 days by flow cytometry analysis

As for `CCS(=O)(=O)c1ccc(CC(=O)Nc2cc(Cl)c(-c3ccc(CN(C)C)c(C#N)c3)c(Cl)c2)cc1`, the half-life in data set [1] was found to be 12.9 min. In [2], the microsomal CLint stood at 108 µL/min/mg.

Regarding `CCS(=O)(=O)c1ccc(CC(=O)Nc2cc(Cl)c(-c3ccc(CC(C)C)c(C#N)c3)c(Cl)c2)cc1`, the half-life was found to be 37.7 min in [1] and 2.6 min in [4]. Moreover, the microsomal CLint in data set [3] was 533 µL/min/mg; in data set [2], 36.7 µL/min/mg. In addition, the EC50 in [5] is 12.2 nM; in “cells”, 13 nM.

`CCS(=O)(=O)c1ccc(CC(=O)Nc2cc(Cl)c(-c3ccc(C=C4CCC4)c(C#N)c3)c(Cl)c2)cc1`: the EC50 in data set [5] is 20.7 nM.

For the compound `CC(C)(C[C@H]1CN(S(=O)(=O)c2cccc(C(F)(F)F)c2)c2cc(-c3cc(F)cc(OC(F)F)c3)ccc2O1)C(=O)O` [CINTIRORGON], the results for the %max in data set [6] and in data set [8] were 100% and 67.3%, respectively. In addition, the AUC(0-inf) at 24 h in “in vivo” turned out to be 3240 ng·h/mL. Further, the inhibition in vivo at 50 mg/kg with B16-F10 is 45.3%. The values for the EC50 (in [7]; in “cells”; in [9]) were 2920 nM, 9.8 nM and 5430 nM, respectively.

Regarding `CCS(=O)(=O)c1ccc(CC(=O)Nc2cc(Cl)c(-c3ccc(CC(C)C)c(C#N)c3)c(Cl)c2)nc1`, the half-life in data set [1] stood at 37.4 min; in [4], 9.3 min. Further, the microsomal CLint in data set [3] turned out to be 150 µL/min/mg; in data set [2], 37 µL/min/mg.

Turning to `CCS(=O)(=O)c1ccc(CNC(=O)c2cc(Cl)c(-c3ccc(CC(C)C)c(C#N)c3)c(Cl)c2)cc1`, the half-life in [1] is 28 min; in data set [4], less than 2.5 min. The microsomal CLint in data set [3] was more than 554 µL/min/mg; in data set [2], 49.5 µL/min/mg.

On to `CCS(=O)(=O)c1ccc(CC(=O)Nc2cc(Cl)c(-c3ccc(CC4CCCC4)c(C#N)c3)c(Cl)c2)cc1`, for which, in data set [5], the EC50 came out at 14.3 nM.

In the case of `CCS(=O)(=O)c1ccc(CNC(=O)Nc2cc(Cl)c(-c3ccc(CC(C)C)c(C#N)c3)c(Cl)c2)cc1`, the half-life in [1] came to 50.6 min; in data set [4], 3.9 min. In addition, the values for the microsomal CLint in [3] and in data set [2] were 354 µL/min/mg and 27.4 µL/min/mg, respectively.

On to `CCS(=O)(=O)c1ccc(CC(=O)Nc2cc(Cl)c(-c3ccc(CC(C)C)c(F)c3)c(Cl)c2)cc1`, for which the EC50 in [5] stood at 15.2 nM.

As for `CCC(C)Cc1ccc(-c2c(Cl)cc(NC(=O)Cc3ccc(S(=O)(=O)CC)cc3)cc2Cl)cc1C#N` (stereo unspecified), the half-life turned out to be 78.5 min in data set [1] and 16.9 min in data set [4]. Moreover, the figures for the microsomal CLint in data set [3] and in data set [2] were 81.9 µL/min/mg and 17.6 µL/min/mg, respectively.

`CCS(=O)(=O)c1ccc(CC(=O)Nc2cc(Cl)c(-c3ccc(CC(C)C)cc3)c(Cl)c2)cc1`: the EC50 in [5] was 12.7 nM.

Regarding `CCS(=O)(=O)c1ccc(CC(=O)Nc2cc(Cl)c(-c3ccccc3)c(Cl)c2)cc1`, the XC50 in data set [10] was determined as 9.2 nM.
